Test results: US9963462B2 (priority 2015, dated 2018)
pIC50: −log10 of the molar value.

What was measured:
[1] = molecular target: SNAP-hSPR (sepiapterin reductase, SPR) (Homo sapiens, UniProt P35270); experiment: biochemical; assay type: binding; details: terbium labelled SNAP-hSPR / SSZ labelled SNAP-EGFP; read-out: hTR-FRET IC50
Source text: TR-FRET Assay: A TR-FRET (homogeneous, time-resolved, fluorescence resonance energy transfer) assay was used to assess activity of compounds following standard assay conditions. […] Compounds were screened at different concentrations and IC50 values calculated.
Terbium labelled SNAP-hSPR and SSZ (sulfasalazine) labelled SNAP-EGFP were used as the protein pair in this assay. Compounds were screened at different concentrations, and 1050 and Kd values calculated.

[2] = tested on: BH4 levels in SK-N-BE (2) cells; experiment: SKN-N-BE (2) cellular assay, BH4 levels by LC-MS; assay type: cell-based; details: Homo sapiens, SKNBE2, read-out: SK-N-BE(2) IC50, SK-N-BE (2) cells, BH4 levels by LC-MS
Procedure: SKN-N-BE(2) Cellular Assay: SK-N-BE (2) cells were seeded in sterile, 96-well plates and incubated for 12-24 hours at 37° C. with 5% CO2 supply. Media was removed and fresh DMEM/F-12 media (containing Glutamine & Pen/Strep but no FBS) was added. Compounds (at different concentrations) were added to different wells. The plates were then incubated for 6-48 hours at 37° C. with 5% CO2 supply. Plates were then centrifuged and the supernatant was removed. The plates were then optionally washed once with PBS. They were then sealed and stored at −80° C. or immediately used. The cells were lysed and the level of BH4 was assessed by LC-MS.
Compounds were assayed for SPR inhibitory activity using a SKN-N-BE (2) cellular assay according to the following procedure. SK-N-BE (2) cells were seeded in sterile, 96-well plates and incubated for 12-24 hours at 37° C. with 5% CO2 supply. Media was removed and fresh DMEM/F-12 media (containing Glutamine & Pen/Strep but no FBS) was added. Compounds (at different concentrations) were added to different wells. The plates were then incubated for 6-48 hours at 37° C. with 5% CO2 supply. Plates were then centrifuged and the supernatant was removed. The plates were then optionally washed once with PBS. They were then sealed and stored at −80° C. or immediately used in the next step. The cells were lysed and the levels of BH4 were assessed by LC-MS.

Sequence of SNAP-hSPR (sepiapterin reductase, SPR) (P35270 whole entry): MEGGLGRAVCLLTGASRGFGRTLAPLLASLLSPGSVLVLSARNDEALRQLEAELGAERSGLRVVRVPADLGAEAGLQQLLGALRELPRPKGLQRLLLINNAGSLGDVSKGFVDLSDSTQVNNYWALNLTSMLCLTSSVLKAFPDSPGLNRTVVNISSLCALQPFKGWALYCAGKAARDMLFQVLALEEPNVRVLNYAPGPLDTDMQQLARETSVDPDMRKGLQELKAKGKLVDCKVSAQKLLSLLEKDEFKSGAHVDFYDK

Structure (SMILES) | pIC50 [1] | pIC50 [2]
Cc1c(C(=O)N2CCC(CC(F)(F)F)CC2)cnn1-c1nc2sccc2c(=O)[nH]1 [Q-0724] | 8.70 | 6.70
CN(C(=O)OC(C)(C)C)[C@@H]1CCN(C(=O)c2cnn(-c3nn4cccc4c(=O)[nH]3)c2)C1 [Q-0730] | 9.00 | 6.70
Cc1c(C(=O)N2CCN(c3cccc(Cl)c3)CC2)cnn1-c1nn2cccc2c(=O)[nH]1 [Q-0830] | 9.00 | 7.39
Cc1nn(-c2nc3ccsc3c(=O)[nH]2)c(C)c1C(=O)N1CCc2ccccc2C1 [Q-0458] | 8.22 | 6.40
COC(=O)c1cnn(-c2nc(C)cc(=O)[nH]2)c1C [Q-0310] | 7.22 | 4.92
O=C(c1cnn(-c2nc3ccsc3c(=O)[nH]2)c1)N1CCC(CC(F)(F)F)CC1 [Q-0712] | 8.70 | 6.52
Cc1c(C(=O)N2CCC(c3nc4ccccc4s3)CC2)ccnc1-c1nc2ccsc2c(=O)[nH]1 [Q-0605] | 6.70 | 5.00
Cc1c(C(=O)N2CC[C@H](C)C[C@@H]2C(F)(F)F)cnn1-c1nc2c(c(=O)[nH]1)CCC2 (racemic) [Q-0480] | 8.05 | 6.52
Cc1c(C(=O)N2CCC(C(F)(F)F)C2)cnn1-c1nc2ccsc2c(=O)[nH]1 (centres unmarked) [Q-0403] | 8.05 | 5.96
Cc1c(C(=O)N2CCc3ccccc3C2)cnn1-c1nc(C(C)(C)C)cc(=O)[nH]1 [Q-0383] | 6.52 | 4.16
Cc1c(C(=O)N2CC3(C2)CC(O)(C(F)(F)F)C3)cnn1-c1nn2cccc2c(=O)[nH]1 [Q-0805] | 8.40 | 5.64
Cc1c(C(=O)N2CCC(C)CC2C)cnn1-c1nc2ccsc2c(=O)[nH]1 (centres unmarked) [Q-0400] | 8.40 | 6.70
N#CC1(c2ccccc2)CCN(C(=O)c2cnn(-c3nc4ccsc4c(=O)[nH]3)c2)CC1 [Q-0523] | 7.70 | 7.00
Cc1c(C(=O)N2CCCCC2c2cccnc2)cnn1-c1nc2c(c(=O)[nH]1)CCC2 (centres unmarked) [Q-0505] | 8.40 | 7.00
COC(=O)c1cnn(-c2nn3c(F)ccc3c(=O)[nH]2)c1C1CC1 [Q-0618] | 9.00 | 7.60
Cc1c(C(=O)N2CCn3c(nnc3C(F)(F)F)C2)cnn1-c1nn2cccc2c(=O)[nH]1 [Q-0859] | 7.70 | 5.08
O=C(c1cnn(-c2nc3c(c(=O)[nH]2)CCC3)c1)N1CCC2(CC1)CC2 [Q-0705] | 8.70 | 7.37
CCN(Cc1ccccc1)C(=O)c1cnn(-c2nc3c(c(=O)[nH]2)CCC3)c1C [Q-0490] | 8.15 | 7.00
Cc1c(C(=O)N2CCC3(CN(C(=O)OC(C)(C)C)C3)C2)cnn1-c1nn2cccc2c(=O)[nH]1 [Q-0748] | 8.40 | 6.05
O=C(O)c1ccnc(-c2nc3c(c(=O)[nH]2)CCC3)c1 [Q-0558] | 5.30 | 5.00
CC(C)(C#N)C1CCN(C(=O)c2cnn(-c3nc4c(c(=O)[nH]3)CCC4)c2C2CC2)CC1 [Q-0553] | 8.22 | 6.70
Cc1c(C(=O)N2CC(C(F)(F)F)CC(C(F)(F)F)C2)cnn1-c1nc2ccsc2c(=O)[nH]1 (centres unmarked) [Q-0406] | 7.30 | 5.70
Cc1c(C(=O)N2CCC3(CCCC3)C2)cnn1-c1nn2cccc2c(=O)[nH]1 [Q-0808] | 9.00 | 6.70
Cc1cc(=O)[nH]c(-n2ncc(C(=O)NCC3(c4ccccc4)CCCC3)c2C)n1 [Q-0385] | 7.52 | 5.42
Cc1c(C(=O)N2CCN(C(=O)C34CC(C#N)(C3)C4)CC2)cnn1-c1nc2c(c(=O)[nH]1)CCC2 [Q-0632, 3-(4-(5-methyl-1-(4-oxo-4,5,6,7-tetrahydro-3H-cyclopenta[d]pyrimidin-2-yl)-1H-pyrazole-4-carbonyl)piperazine-1-carbonyl)bicyclo[1.1.1]pentane-1-carbonitrile] | 8.40 | 5.14
